In one assay the test system is HCT116 MTAP null cells. The assay can be described thus: HCT116 MTAP null cell proliferation / viability (CellTiter-Glo, 6 days). It counts as cell-based. The settings on record: HCT116-MTAP null, 144 h, HCT116 MTAP null cells, 6 days, CellTiter-Glo; read-out: HCT-116 MTAP null IC50. Put shortly:
(§1)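 IC50 values derive from sigmoidal dose-response fits, some with Hill slope fixed at −1 and top constrained to 100%, others from 4-parameter logistic models. They reflect CellTiter-Glo viability after 6 days of compound exposure at up to 10 or 50 μM.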

Another assay has as its system HCT116 WT cells. The assay can be described thus: HCT116 WT cell proliferation / viability (CellTiter-Glo, 6 days). It counts as cell-based. The settings on record: Homo sapiens, HCT-116, 144 h, HCT116 WT cells, 6 days, CellTiter-Glo; read-out: HCT-116 WT IC50. Put shortly:
as §1
(In general: In ATP-based viability assays light output follows the ATP content of the culture.)

For orientation: IC50 means the concentration needed to halve the response being measured. Consider `CN(Cc1ccc(S(F)(F)(F)(F)F)cc1)C(=O)c1cc2c(cn1)nc(N)c1cnn(C)c12` [Example 574, 4-amino-N,1-dimethyl-N-(4-(pentafluoro-lambda~6~- sulfanyl)benzyl)-1H-pyrazolo[4,3-c][1,7]naphthyridine-8-carboxamide], for which the IC50 with HCT116 MTAP null cells was 25 nM; with HCT116 WT cells it was 878 nM.
`COC[C@@H](C)N(Cc1ccc(Br)nn1)C(=O)c1cc2c3c(c(N)nc2cn1)COC3` [Example 680, 4-amino-N-((6-bromo-3-pyridazinyl)methyl)-N-((2R)-1-methoxy-2-propanyl)-1,3-dihydrofuro[3,4-c][1,7]naphthyridine-8-carboxamide]: the IC50 is 91 nM with HCT116 MTAP null cells and 2840 nM in the assay with HCT116 WT cells.
As to `COc1cc2nc(N)c3c(c2cc1C(=O)N(C)Cc1ccc(C(F)(F)F)cn1)COC3` [Example 502, 4-amino-7-methoxy-N-methyl-N-((5-(trifluoromethyl)-2-pyridinyl)methyl)-1,3-dihydrofuro[3,4-c]quinoline-8-carboxamide], the figures for the IC50 in the assay with HCT116 MTAP null cells and with HCT116 WT cells were 3930 nM and 47300 nM, respectively.
As for `COCC(COC)N(Cc1ccc(C(F)(F)F)cn1)C(=O)c1ccc2nc(N)c3c(c2c1)COC3` [Example 444, 4-amino-N-(1,3-dimethoxy-2-propanyl)-N-((5-(trifluoromethyl)-2-pyridinyl)methyl)-1,3-dihydrofuro[3,4-c]quinoline-8-carboxamide], the IC50 was found to be 13 nM with HCT116 MTAP null cells and 343 nM with HCT116 WT cells.
As for `C[C@H]1OCc2c1c(N)nc1ccc(C(=O)N(Cc3ccc(C(F)(F)F)nn3)C3CCC3)cc21` [Example 722, (3R)-4-amino-N-cyclobutyl-3-methyl-N-((6-(trifluoromethyl)-3-pyridazinyl)methyl)-1,3-dihydrofuro[3,4-c]quinoline-8-carboxamide], the concentration for half-maximal inhibition (IC50) in the assay with HCT116 MTAP null cells stood at 85 nM; in the assay with HCT116 WT cells, 3350 nM.
Turning to `Nc1nc2ccc(C(=O)N(Cc3ccc(C4CC4)cn3)C3CC3)cc2c2c1COC2` [Example 343, 4-amino-N-cyclopropyl-N-((5-cyclopropyl-2-pyridinyl)methyl)-1,3-dihydrofuro[3,4-c]quinoline-8-carboxamide], the figures for the half-inhibitory concentration (IC50) in the assay on HCT116 MTAP null cells and in the assay with HCT116 WT cells were 270 nM and 8240 nM, respectively.
Consider `Cn1cc(N(Cc2ccc(C(F)F)cn2)C(=O)c2cc3c4c(c(N)nc3cn2)CCC4)cn1` [Example 493, 6-amino-N-((5-(difluoromethyl)-2-pyridinyl)methyl)-N-(1-methyl-1H-pyrazol-4-yl)-8,9-dihydro-7H-cyclopenta[c][1,7]naphthyridine-2-carboxamide], for which the half-maximal inhibitory concentration (IC50) in the assay with HCT116 MTAP null cells is 124 nM; in the assay on HCT116 WT cells it was 1160 nM.
For `COC[C@@H](C)N(Cc1ccc(Cl)nn1)C(=O)c1ccc2nc(N)c3c(c2c1)COC3` [Example 305, 4-amino-N-((6-chloro-3-pyridazinyl)methyl)-N-((2R)-1-methoxy-2-propanyl)-1,3-dihydrofuro[3,4-c]quinoline-8-carboxamide], in that order: 27 nM and 861 nM.
Take `Cn1cc(N(Cc2ccc(C(F)(F)F)cn2)C(=O)c2ccc3nc(N)c4c(c3c2)COC4)cn1` [Example 884, 4-amino-N-(1-methyl-1H-pyrazol-4-yl)-N-((5-(trifluoromethyl)-2-pyridinyl)methyl)-1,3-dihydrofuro[3,4-c]quinoline-8-carboxamide]: the IC50 with HCT116 MTAP null cells is 27 nM; with HCT116 WT cells it was 733 nM.
For the molecule `C[C@H](c1ncccn1)N(Cc1ccc(C(F)(F)F)cn1)C(=O)c1cnc2nc(N)c3c(c2c1)CCC3` [Example 626, 6-amino-N-((1R)-1-(2-pyrimidinyl)ethyl)-N-((5-(trifluoromethyl)-2-pyridinyl)methyl)-8,9-dihydro-7H-cyclopenta[c][1,8]naphthyridine-2-carboxamide], the IC50 with HCT116 MTAP null cells amounted to 43 nM; in the assay on HCT116 WT cells it was 444 nM.
On the same counts, the results for `C[C@H]1OCc2c1c(N)nc1ccc(C(=O)N(Cc3ccc(C#N)cn3)C3CC3)cc21` [Example 355, (3R)-4-amino-N-((5-cyano-2-pyridinyl)methyl)-N-cyclopropyl-3-methyl-1,3-dihydrofuro[3,4-c]quinoline-8-carboxamide] are 171 nM and 19000 nM.
On to `CCN(C(=O)c1cc2c3c(c(N)nc2cn1)COC3)[C@H](C)c1ccc(C(F)(F)F)cn1` (single isomer, unassigned) [Example 823], for which the IC50 is 528 nM in the assay with HCT116 MTAP null cells and 16200 nM in the assay with HCT116 WT cells.
For `C[C@H](c1ncccn1)N(Cc1cc2c(cn1)OCCC2)C(=O)c1cc2c3c(c(N)nc2cn1)COC3` [Example 686, 4-amino-N-(3,4-dihydro-2H-pyrano[2,3-c]pyridin-6-ylmethyl)-N-((1R)-1-(2-pyrimidinyl)ethyl)-1,3-dihydrofuro[3,4-c][1,7]naphthyridine-8-carboxamide], the IC50 in the assay on HCT116 MTAP null cells is 445 nM; with HCT116 WT cells, 8800 nM.
Take `C[C@@H](c1ncccn1)N(Cc1ccc(C(F)(F)F)nn1)C(=O)c1ccc2nc(N)c3c(c2c1)CCC3` (single isomer, unassigned) [Example 648]: the IC50 in the assay with HCT116 MTAP null cells came to 279 nM; with HCT116 WT cells, 2500 nM.
`Nc1nc2ccc(C(=O)N(Cc3ccc(C(F)(F)F)nn3)C3CCC3)cc2c2c1COC2` [Example 669, 4-amino-N-cyclobutyl-N-((6-(trifluoromethyl)-3-pyridazinyl)methyl)-1,3-dihydrofuro[3,4-c]quinoline-8-carboxamide]: the IC50 with HCT116 MTAP null cells stood at 73 nM; in the assay on HCT116 WT cells, 3070 nM.
As to `COCC(C)N(Cc1ccc(C(F)(F)F)cn1)C(=O)c1ccc2nc(N)c3c(C)noc3c2c1` (racemic) [Example 634, 4-amino-N-((2R)-1-methoxy-2-propanyl)-3-methyl-N-((5-(trifluoromethyl)-2-pyridinyl)methyl)[1,2]oxazolo[4,5-c]quinoline-8-carboxamide and 4-amino-N-((2S)-1-methoxy-2-propanyl)-3-methyl-N-((5-(trifluoromethyl)-2-pyridinyl)methyl)[1,2]oxazolo[4,5-c]quinoline-8-carboxamide], the IC50 in the assay with HCT116 MTAP null cells was 34 nM; with HCT116 WT cells, 953 nM.
Consider `CCOc1ccc(CN(C(=O)c2ccc3nc(N)c4c(c3c2)COC4)[C@H](C)COC)nn1` [Example 373, 4-amino-N-((6-ethoxy-3-pyridazinyl)methyl)-N-((2R)-1-methoxy-2-propanyl)-1,3-dihydrofuro[3,4-c]quinoline-8-carboxamide], for which the figures for the IC50 in the assay on HCT116 MTAP null cells and in the assay with HCT116 WT cells were 22 nM and 2980 nM, respectively.

Values taken from US20240101570A1 (AMGEN INC., priority 2020, published 2024).
